From US20050282824A1, “Substituted pyrimidines as inhibitors of bacterial type III protein secretion systems” (priority 2004, published 2005)

Key:
[1] = test system: Type III protein secretion of ExoU by P. aeruginosa PA103; test: Tertiary assay: Type III-dependent secretion of ExoU by P. aeruginosa PA103; format: cell-based; details: Pseudomonas aeruginosa, read-out: ExoU IC50(uM)
Text: Tertiary assay: inhibition of Type III protein secretion of effectors from a Pseudomonas aeruginosa system. Type III protein secretion is used by P. aeruginosa to secrete several essential virulence determinants. One effector of the type III protein secretion system of P. aeruginosa PA 103 is the virulence determinants ExoU.
The amount of Type III-dependent secretion of ExoU by P. aeruginosa PA103 can be determined in a cell-based assay by quantification of the 73.9 kDa ExoU protein secreted into the extracellular medium. Such quantitation can be achieved by growing strain PA 103 in a deferrated medium in the presence of nitrilotriacetic acid (an inducer of Type III protein secretion in P. aeruginosa) and either in the presence or absence of putative inhibitors. After a prolonged growth period, the cells are sedimented and the supernatants concentrated by ammonium sulfate precipitation. The proteins in the resuspended pellets are separated by electrophoresis on SDS-polyacrylamide gels. After staining gels with Colloidal Blue™, the 73.9 kDa ExoU band is quantitated by scanning through an imager. The effects of inhibitors on the intensity of the ExoU band may be measured relative to that of untreated controls.

[2] = test system: SPI1 type III protein secretion of SopE'-'Bla by Salmonella enterica; test: Primary assay: Type III protein secretion of the chimeric SopE'-'Bla polypeptide by Salmonella enterica; format: cell-based; details: read-out: SopE IC50(uM)
Text: Primary assay: Type III protein secretion of the chimeric SopE′-′Bla polypeptide by Salmonella enterica. This procedure is a cell-based assay that measures the type III-dependent secretion by Salmonella enterica of a plasmid-encoded chimeric polypeptide whose synthesis can be regulated, and which is endowed with an enzymatic activity that can be monitored […] by hydrolysis of a substrate that is unable to penetrate into the bacterial cytoplasm within the time constraints of the reaction. Thus, the colorimetric reaction is not influenced by SopE′-′Bla polypeptide in the bacterial cytoplasm. Instead, it effectively measures the amount of polypeptide that has been secreted from the S. enterica cytoplasm to the extracellular medium via type III system protein secretion.
The SopE′-′Bla recombinant polypeptide consists of two functionally distinct domains spliced together. The N-terminus domain is encoded by a polynucleotide region specifying the signal for type III secretion of the SopE polypeptide of S. enterica, an effector of the SPI1 type III protein secretion system. The C-terminus domain of SopE′-′Bla consists of a 263 amino acid peptide sequence that corresponds to the TEM-1 β-lactamase expressed by plasmid pBR322 but without its N-terminal signal sequence. The TEM-1 β-lactamase part of the SopE′-′Bla chimeric polypeptide is used as a reporter enzyme. It is capable of hydrolyzing nitrocefin resulting in a product whose accumulation can be monitored by colorimetric detection. The secretion of the SopE′-′Bla chimeric polypeptide from the cytoplasm to the extracellular medium is dependent on type III protein secretion.
For this procedure, cells grown under conditions known to favor a functional SPI1 secretion system are induced for expression of the SopE′-′Bla protein and grown either in the presence or in the absence of putative inhibitors for determined time. Nitrocefin is then added to the various cultures and its hydrolysis are used for quantitation. An inhibitor of Type III protein secretion is generally a compound that reduces the signal of the enzymatic reaction by decreasing the amount of SopE′-′Bla secreted into the extracellular medium.

| Compound | IC50 [1] [µM] | IC50 [2] [µM] |
| --- | --- | --- |
| Cc1cc(C(=O)N[C@@H](CSCc2ccccc2)C(=O)O)nc(N2CCC(c3ccccc3)CC2)n1 [Compound 2, (R)-3-Benzylsulfanyl-2-{[6-methyl-2-(4-phenylpiperidin-1-yl)pyrimidine-4-carbonyl]amino}propionic acid] | > 100 | 34.2 |
| O=C(N[C@H](Cc1ccc(Cl)cc1)C(=O)O)c1cc(N2CCc3ccccc3C2)nc(Cl)n1 [Compound 5, (R)-2-{[2-Chloro-6-(3,4-dihydro-1H-isoquinolin-2-yl)pyrimidine-4-carbonyl]amino}-3-(4-chlorophenyl)propionic acid] |  | 32.7 |
| O=C(N[C@H](Cc1ccc(Cl)cc1)C(=O)O)c1cc(N2CCc3ccccc3C2)nc(-c2ccc(F)cc2)n1 [Compound 9, (R)-3-(4-Chlorophenyl)-2-{[6-(3,4-dihydro-1H-isoquinolin-2-yl)-2-(4-fluoro-phenyl)Pyrimidine-4-carbonyl]amino}propionic acid] |  | 8 |
| O=C(N[C@@H](CSCc1ccccc1)C(=O)O)c1cc(N2CCCCC2)nc(N2CCC(c3ccccc3)CC2)n1 [Compound 29, (R)-3-Benzylsulfanyl-2-{[2-(4-phenylpiperidin-1-yl)-6-piperidin-1-yl-pyrimidine-4-carbonyl]amino}propionic acid] |  | 3.2 |
| O=C(N[C@H](Cc1ccc(Cl)cc1)C(=O)O)c1cc(N2CCCc3ccccc32)nc(-c2ccc(-c3ccccc3)cc2)n1 [Compound 33, (R)-2-{[2-Biphenyl-4-yl-6-(3,4-dihydro-2H-quinolin-1-yl)pyrimidine-4-carbonyl]amino}-3-(4-chlorophenyl)propionic acid] | 24.4 |  |
| O=C(N[C@H](Cc1ccc(Cl)cc1)C(=O)O)c1cc(N2CCCCC2)nc(-c2ccc(-c3ccccc3)cc2)n1 [Compound 34, (R)-2-[(2-Biphenyl-4-yl-6-piperidin-1-yl-pyrimidine-4-carbonyl)amino]-3-(4-chlorophenyl)propionic acid] | 71 |  |
| CN1CCN(c2nc(C(=O)N[C@@H](COCc3ccccc3)C(=O)O)cc(N3CCN(c4nccc(C(F)(F)F)n4)CC3)n2)CC1 [Compound 45, (S)-3-Benzyloxy-2-({2-(4-methyl-piperazin-1-yl)-6-[4-(4-trifluoromethylpyrimidin-2-yl)piperazin-1-yl]pyrimidine-4-carbonyl}amino)propionic acid] |  | 60.7 |
| CC1CCN(c2nc(C(=O)N[C@@H](CSCc3ccccc3)C(=O)O)cc(N3CCN(c4ccccn4)CC3)n2)CC1 [Compound 64, (R)-3-Benzylsulfanyl-2-{[2-(4-methylpiperidin-1-yl)-6-(^4-pyridin-2-yl-piperazin-1-yl)pyrimidine-4-carbonyl]amino}propionic acid] | 18.9 |  |
| O=C(N[C@@H](COCc1ccccc1)C(=O)O)c1cc(N2CCN(c3ccccn3)CC2)nc(N2CCN(c3ccccn3)CC2)n1 [Compound 65, (S)-3-Benzyloxy-2-{[2,6-bis-(4-pyridin-2-yl-piperazin-1-yl)pyrimidine-4-carbonyl]-amino}propionic acid] | 38.4 |  |
| O=C(N[C@@H](CSCc1ccccc1)C(=O)O)c1cc(N2CCN(c3ccccn3)CC2)nc(N2CCN(c3ccccn3)CC2)n1 [Compound 66, (R)-3-Benzylsulfanyl-2-{[2,6-bis-(4-pyridin-2-yl-piperazin-1-yl)pyrimidine-4-carbonyl]amino}propionic acid] | 52.8 |  |
| O=C(NC(Cc1ccc(Cl)cc1)C(=O)O)c1cc(N2CCN(c3ccccn3)CC2)nc(N2CCN(c3ccccn3)CC2)n1 (stereo not drawn) [Compound 67, 2-{[2,6-Bis-(4-pyridin-2-yl-piperazin-1-yl)pyrimidine-4-carbonyl]amino}-3-(4-chlorophenyl)propionic acid] | 65.6 |  |
| O=C(NC(Cc1ccc(Cl)cc1)C(=O)O)c1cc(N2CCN(c3ccccn3)CC2)nc(-c2ccc([N+](=O)[O-])cc2)n1 (stereo not drawn) [Compound 68, 3-(4-Chlorophenyl)-2-{[2-(4-nitrophenyl)-6-(4-pyridin-2-yl-piperazin-1-yl)-pyrimidine-4-carbonyl]amino}propionic acid] | 21.1 |  |
| CN(C)c1ccc(-c2nc(C(=O)N[C@@H](COCc3ccccc3)C(=O)O)cc(N3CCN(c4ccccn4)CC3)n2)cc1 [Compound 69, (S)-3-Benzyloxy-2-{[2-(4-dimethylaminophenyl)-6-(4-pyridin-2-yl-piperazin-1-yl)-pyrimidine-4-carbonyl]amino}propionic acid] | > 100 |  |
| CN(C)c1ccc(-c2nc(C(=O)NC(Cc3ccc(Cl)cc3)C(=O)O)cc(N3CCN(c4ccccn4)CC3)n2)cc1 (stereo not drawn) [Compound 70, 3-(4-Chlorophenyl)-2-{[2-(4-dimethylaminophenyl)-6-(4-pyridin-2-yl-piperazin-1-yl)pyrimidine-4-carbonyl]amino}propionic acid] | 29.8 |  |
| O=C(N[C@@H](COCc1ccccc1)C(=O)O)c1cc(N2CCN(c3ccccn3)CC2)nc(-c2cccs2)n1 [Compound 71, (S)-3-Benzyloxy-2-{[6-(4-pyridin-2-yl-piperazin-1-yl)-2-thiophen-2-yl-pyrimidine-4-carbonyl]amino}propionic acid] | > 50 |  |
| O=C(N[C@@H](CSCc1ccccc1)C(=O)O)c1cc(N2CCN(c3ccccn3)CC2)nc(-c2ccoc2)n1 [Compound 72, (R)-3-Benzylsulfanyl-2-{[2-furan-3-yl-6-(4-pyridin-2-yl-piperazin-1-yl)pyrimidine-4-carbonyl]amino}propionic acid] | > 50 |  |
| O=C(N[C@@H](COCc1ccccc1)C(=O)O)c1cc(N2CCN(c3ccccn3)CC2)nc(-c2ccoc2)n1 [Compound 73, (S)-3-Benzyloxy-2-{[2-furan-3-yl-6-(4-pyridin-2-yl-piperazin-1-yl)pyrimidine-4-carbonyl]amino}propionic acid] | > 50 |  |
| CC1CCN(c2cc(C(=O)N[C@@H](CSCc3ccccc3)C(=O)O)nc(N3CCN(c4ccccn4)CC3)n2)CC1 [Compound 74, (R)-3-Benzylsulfanyl-2-{[6-(4-methylpiperidin-1-yl)-2-(4-pyridin-2-yl-piperazin-1-yl)pyrimidine-4-carbonyl]amino}propionic acid] | > 50 |  |
| CN1CCN(c2cc(C(=O)N[C@@H](CSCc3ccccc3)C(=O)O)nc(N3CCN(c4ccccn4)CC3)n2)CC1 [Compound 75, (R)-3-Benzylsulfanyl-2-{[6-(4-methyl-piperazin-1-yl)-2-(4-pyridin-2-yl-piperazin-1-yl)pyrimidine-4-carbonyl]amino}propionic acid] | > 100 |  |
| CN1CCN(c2cc(C(=O)N[C@@H](COCc3ccccc3)C(=O)O)nc(N3CCN(c4ccccn4)CC3)n2)CC1 [Compound 76, (S)-3-Benzyloxy-2-{[6-(4-methyl-piperazin-1-yl)-2-(4-pyridin-2-yl-piperazin-1-yl)-pyrimidine-4-carbonyl]amino}propionic acid] | > 50 |  |
| O=C(N[C@@H](CSCc1ccccc1)C(=O)O)c1cc(N2CCC(Cc3ccccc3)CC2)nc(-c2ccc(C(F)(F)F)cc2)n1 [Compound 77, (R)-2-{[6-(4-Benzylpiperidin-1-yl)-2-(4-trifluoromethylphenyl)pyrimidine-4-carbonyl]amino}3-benzylsulfanylpropionic acid] | 92.8 |  |
| O=C(N[C@@H](CSCc1ccccc1)C(=O)O)c1cc(N2CCC(Cc3ccccc3)CC2)nc(-c2ccc(Cl)cc2)n1 [Compound 78, (R)-2-{[6-(4-Benzylpiperidin-1-yl)-2-(4-chlorophenyl)pyrimidine-4-carbonyl]-amino}-3-benzylsulfanylpropionic acid] | 42.4 |  |
| O=C(NC(Cc1ccc(Cl)cc1)C(=O)O)c1cc(N2CCC(Cc3ccccc3)CC2)nc(-c2ccc(Cl)cc2)n1 (stereo not drawn) [Compound 79, 2-{[6-(4-Benzylpiperidin-1-yl)-2-(4-chlorophenyl)pyrimidine-4-carbonyl]amino}-3-(4-chlorophenyl)propionic acid] | 64 |  |
